Source: patent US6780883B2, “Amide inhibitors of microsomal triglyceride transfer protein” (Warner-Lambert Company, priority 1998, dated 2004)

Key:
[1] = tested on: Lp(a) production in HepG2^K17 cells; assay: LPA3 screen: inhibition of Lp(a) production in transfected HepG2 cells, Lp(a) in media by ELISA; type: cell-based; details: Homo sapiens, 8 hours, 0.3 to 50 μM compound, Lp(a) normalized for total protein, read-out: Lp A3 IC50
Procedure: The LPA3 screen is used to identify compounds that inhibit Lp(a) production. This screen employs permanently transfected HepG2 cells (HepG2^K17) that are generated using an apo(a) 17-kringle cDNA expression construct (pcDNA-AMP, In Vitrogen, Carlsbad, Calif.) in accordance with methods that are well-known in molecular biology.
HepG2^K17 cells are seeded in 96-well plates at a density of 75,000 cells per well in 0.25 mL of Dulbecco's Modified Eagle Media (DMEM) containing 10% fetal bovine serum (FBS). Seeded plates are incubated overnight in a 37° C., 5% CO2/95% 02 incubator. The media is removed, replaced with (1) fresh media, or (2) fresh media plus 0.3 to 50 μM of a compound of the present invention in 20 μL of PBS, and the plates returned to the incubator for 8 hours. After the additional 8 hours of incubation, Lp(a) is assayed in the media by ELISA. Cells are digested with 0.5N NaOH overnight and assayed for total protein. Lp(a) values are normalized for total protein content.

[2] = molecular target: apolipoprotein(a), [apo(a)], apolipoproteinB-100, [apoB-100], coupling reaction that generates Lp(a) (Homo sapiens, UniProt P04114+P08519); assay: LPABC screen: lipoprotein(a) biochemical coupling assay, Lp(a) content by ELISA; details: recombinant apo(a) 17-kringle (293 cell media) + HepG2 conditioned media, 67 minutes, 37° C., 0.3 to 50 μM compound; read-out: Lp ABC IC50
Procedure: LPABC Screen The lipoprotein(a), [Lp(a)], biochemical coupling assay (LPABC) is used to characterize inhibitors of the apolipoprotein(a), [apo(a)], apolipoproteinB-100, [apoB-100], coupling reaction that generates Lp(a). Conditioned media from 293 cells (ATCC CRL-1573), permanently transfected with an apo(a) 17-kringle cDNA expression construct (pcDNA-AMP, In Vitrogen, Carlsbad, Calif.) using standard molecular biology techniques, was used as a source of recombinant apo(a) is diluted 1:3 with phosphate buffered saline (PBS) and 90 μL is pipetted into each well of a 96-well plate and placed into a 37° C. incubator for 10 minutes. Twenty microliters of a 0.3 to 50 μM solution of a compound of the present invention in PBS is added to the warmed plate. Ninety microliters of HepG2 (ATCC HB-8065) cell conditioned media diluted 1:3 with PBS is added to the apo(a)/compound mixture and mixed by pipetting up and down 5 times. The reaction is incubated for 67 minutes in a 37° C. incubator. A 100 μL aliquot of the reaction is removed and assayed for its Lp(a) content by an enzyme linked immunosorbent assay (ELISA).

Which results are given for `CC(C)c1ccc(C(=O)N(Cc2ccccc2-c2ccccc2)c2cccnc2)cc1` [Example 72, N-Biphenyl-2-ylmethyl-4-isopropyl-N-pyridin-3-yl-benzamide]?
IC50 [1]: 37.1 µM; IC50 [2]: > 50 µM

How did the IC50 [1] turn out when `CCOc1ccccc1C(=O)N(Cc1ccc2c(c1)C(C)(C)CCC2(C)C)c1cccnc1` [Example 73, 2-Ethoxy-N-pyridin-3-yl-N-(5,5,8,8-tetramethyl-5,6,7,8-tetrahydro-naphthalen-2-ylmethyl)-benzamide] was run?
The IC50 was 10 µM.

What about the IC50 [2] of the same molecule?
Its IC50 is > 50 µM.

Which IC50 [1] does the source give for `CCOc1ccccc1C(=O)N(Cc1cc(C(C)(C)C)cc(C(C)(C)C)c1)c1cccnc1` [Example 74, N-(3,5-Di-tert-butyl-benzyl)-2-ethoxy-N-pyridin-3-yl-benzamide] here?
The IC50 was 11.6 µM.

And the IC50 [2]?
Its IC50 is > 50 µM.

For `CCOc1ccccc1C(=O)N(Cc1cc(Br)cc(Br)c1)c1cccnc1` [Example 75, N-(3,5-Dibromo-benzyl)-2-ethoxy-N-pyridin-3-yl-benzamide], which IC50 [1] is on record?
Its IC50 is 14.9 µM.

And the IC50 [2]?
The IC50 was > 50 µM.

Which IC50 [1] does the source give for `CCOc1ccccc1C(=O)N(Cc1ccc(OC)cc1)c1cccnc1` [Example 76, 2-Ethoxy-N-(4-methoxy-benzyl)-N-pyridin-3-yl-benzamide] here?
Its IC50 is 33.3 µM.

And the IC50 [2]?
The IC50 was > 50 µM.

How did the IC50 [1] turn out when `CCOc1ccccc1C(=O)N(Cc1cccc(OC)c1)c1cccnc1` [Example 77, 2-Ethoxy-N-(3-methoxy-benzyl)-N-pyridin-3-yl-benzamide] was run?
Its IC50 is 44.5 µM.

What about the IC50 [2] of the same molecule?
Its IC50 is > 50 µM.

What does the source list for `CCOc1ccccc1C(=O)N(Cc1ccc(Cl)c(Cl)c1)c1cccnc1` [Example 78, N-(3,4-Dichloro-benzyl)-2-ethoxy-N-pyridin-3-yl-benzamide]?
IC50 [1]: 10.3 µM; IC50 [2]: > 50 µM

Which results are given for `CCOc1ccccc1C(=O)N(Cc1ccc2ccccc2c1)c1cccnc1` [Example 79, 2-Ethoxy-N-naphthalen-2-ylmethyl-N-pyridin-3-yl-benzamide]?
IC50 [1]: 17 µM; IC50 [2]: > 50 µM

How did the IC50 [1] turn out when `CCOc1ccccc1C(=O)N(Cc1ccc(C(C)(C)C)cc1)c1cccnc1` [Example 80, N-(4-tert-Butyl-benzyl)-2-ethoxy-N-pyridin-3-yl-benzamide] was run?
The IC50 was 19.2 µM.

And the IC50 [2]?
The IC50 was > 50 µM.

Which IC50 [1] does the source give for `CCOc1ccccc1C(=O)N(Cc1ccccc1-c1ccccc1)c1cccnc1` [Example 81, N-Biphenyl-2-ylmethyl-2-ethoxy-N-pyridin-3-yl-benzamide] here?
The IC50 was 0.9 µM.

And the IC50 [2]?
Its IC50 is > 50 µM.

Which results are given for `CCCCOc1ccc(N(Cc2ccc3c(c2)C(C)(C)CCC3(C)C)C(=O)CN(CC)CC)cn1` [Example 82, N-(6-Butoxy-pyridin-3-yl)-2-diethylamino-N-(5,5,8,8-tetramethyl-5,6,7,8-tetrahydro-naphthalen-2-ylmethyl)-acetamide]?
IC50 [1]: 36.8 µM; IC50 [2]: > 50 µM

Which IC50 [1] does the source give for `CCCCOc1ccc(N(Cc2ccc(C(C)(C)C)cc2)C(=O)CN(CC)CC)cn1` [Example 83, N-(6-Butoxy-pyridin-3-yl)-N-(4-tert-butyl-benzyl)-2-diethylamino-acetamide] here?
The IC50 was 34 µM.

And the IC50 [2]?
The IC50 was > 50 µM.

With `CCCCOc1ccc(N(Cc2ccccc2-c2ccccc2)C(=O)CN(CC)CC)cn1` [Example 84, N-Biphenyl-2-ylmethyl-N-(6-butoxy-pyridin-3-yl)-2-diethylamino-acetamide] as the molecule, how does the IC50 [1] read?
The IC50 was 43.7 µM.

What about the IC50 [2] of the same molecule?
Its IC50 is > 50 µM.

`COc1ccccc1N(Cc1ccc2ccccc2c1)C(=O)c1ccccc1` [Example 85, N-(2-Methoxy-phenyl)-N-naphthalen-2-ylmethyl-benzamide] was tested. Which IC50 [1] did it give?
The IC50 was 10.2 µM.

What about the IC50 [2] of the same molecule?
The IC50 was > 50 µM.

Which results are given for `COc1ccc(CN(C(=O)c2ccccc2)c2ccccc2OC)cc1` [Example 86, N-(4-Methoxy-benzyl)-N-(2-methoxy-phenyl)-benzamide]?
IC50 [1]: 30.1 µM; IC50 [2]: > 50 µM

Which IC50 [1] does the source give for `COc1cccc(CN(C(=O)c2ccccc2)c2ccccc2OC)c1` [Example 87, N-(3-Methoxy-benzyl)-N-(2-methoxy-phenyl)-benzamide] here?
The IC50 was 19.2 µM.

What about the IC50 [2] of the same molecule?
Its IC50 is > 50 µM.

What does the source list for `COc1ccccc1N(Cc1ccccc1-c1ccccc1)C(=O)c1ccccc1` [Example 88, N-Biphenyl-2-ylmethyl-N-(2-methoxy-phenyl)-benzamide]?
IC50 [1]: 16.5 µM; IC50 [2]: > 50 µM

With `CCN(CC)CCCc1ccc(N(Cc2ccc3c(c2)C(C)(C)CCC3(C)C)C(=O)c2ccccc2)cc1` [Example 89, N-[4-(3-Diethylamino-propyl)-phenyl]-N-(5,5,8,8-tetramethyl-5,6,7,8-tetrahydro-naphthalen-2-ylmethyl)-benzamide] as the molecule, how does the IC50 [1] read?
The IC50 was 13.2 µM.

And the IC50 [2]?
The IC50 was > 50 µM.

How did the IC50 [1] turn out when `CCOc1ccccc1C(=O)N(Cc1ccccc1-c1ccccc1)c1ccc(OC)nc1` [Example 90, N-Biphenyl-2-ylmethyl-2-ethoxy-N-(6-methoxy-pyridin-3-yl)-benzamide] was run?
The IC50 was 31.7 µM.

What about the IC50 [2] of the same molecule?
Its IC50 is > 50 µM.

How did the IC50 [1] turn out when `COc1ccc(N(Cc2ccccc2-c2ccccc2)C(=O)c2ccccc2OC)cn1` [Example 91, N-Biphenyl-2-ylmethyl-2-methoxy-N-(6-methoxy-pyridin-3-yl)-benzamide] was run?
The IC50 was 46.5 µM.

What about the IC50 [2] of the same molecule?
Its IC50 is > 50 µM.

For `COc1ccccc1C(=O)N(Cc1cccnc1)Cc1ccccc1-c1ccccc1` [Example 92, N-Biphenyl-2-ylmethyl-2-methoxy-N-pyridin-3-ylmethyl-benzamide], which IC50 [1] is on record?
The IC50 was 6.3 µM.

And the IC50 [2]?
Its IC50 is > 50 µM.

With `O=C(c1cc2ccccc2s1)N(Cc1ccccc1-c1ccccc1)c1ccncc1` [Example 93, Benzo[b]thiophene-2-carboxylic acid biphenyl-2-ylmethyl-pyridin-4-yl-amide] as the molecule, how does the IC50 [1] read?
The IC50 was 10.5 µM.

What about the IC50 [2] of the same molecule?
Its IC50 is > 50 µM.

How did the IC50 [1] turn out when `COc1ccc(N(Cc2ccccc2-c2ccccc2)C(=O)c2ccccc2[N+](=O)[O-])cn1` [Example 94, N-Biphenyl-2-ylmethyl-N-(6-methoxy-pyridin-3-yl)-2-nitro-benzamide] was run?
The IC50 was 24.8 µM.

And the IC50 [2]?
Its IC50 is > 50 µM.

How did the IC50 [1] turn out when `CCOc1ccc(C(=O)N(Cc2ccccc2-c2ccccc2)c2ccc(OC)nc2)cc1` [Example 95, N-Biphenyl-2-ylmethyl-4-ethoxy-N-(6-methoxy-pyridin-3-yl)-benzamide] was run?
The IC50 was 11.4 µM.

What about the IC50 [2] of the same molecule?
Its IC50 is > 50 µM.

For `CCOc1ccccc1C(=O)N(Cc1cccnc1)Cc1ccccc1-c1ccccc1` [Example 96, N-Biphenyl-2-ylmethyl-2-ethoxy-N-pyridin-3-ylmethyl-benzamide], which IC50 [1] is on record?
Its IC50 is 7.5 µM.

What about the IC50 [2] of the same molecule?
Its IC50 is > 50 µM.

Which IC50 [1] does the source give for `O=C(c1cccc2c1OCO2)N(Cc1cccnc1)Cc1ccccc1-c1ccccc1` [Example 97, Benzo[1,3]dioxole-4-carboxylic acid biphenyl-2-ylmethyl-pyridin-3-ylmethyl-amide] here?
Its IC50 is 7.8 µM.

What about the IC50 [2] of the same molecule?
The IC50 was > 50 µM.

Which IC50 [1] does the source give for `O=C(c1ccccc1Br)N(Cc1cccnc1)Cc1ccccc1-c1ccccc1` [Example 98, N-Biphenyl-2-ylmethyl-2-bromo-N-pyridin-3-ylmethyl-benzamide] here?
The IC50 was 8.5 µM.

And the IC50 [2]?
Its IC50 is > 50 µM.

Which IC50 [1] does the source give for `O=C(c1sc2ccccc2c1Cl)N(Cc1cccnc1)Cc1ccccc1-c1ccccc1` [Example 99, 3-Chloro-benzo[b]thiophene-2-carboxylic acid biphenyl-2-ylmethyl-pyridin-3-ylmethyl-amide] here?
Its IC50 is 24.7 µM.

And the IC50 [2]?
Its IC50 is > 50 µM.

Which IC50 [1] does the source give for `O=C(c1ccccc1[N+](=O)[O-])N(Cc1cccnc1)Cc1ccccc1-c1ccccc1` [Example 100, N-Biphenyl-2-ylmethyl-2-nitro-N-pyridin-3-ylmethyl-benzamide] here?
The IC50 was 45.8 µM.

And the IC50 [2]?
The IC50 was > 50 µM.

For `O=C(c1ccccc1OCc1ccccc1)N(Cc1cccnc1)Cc1ccccc1-c1ccccc1` [Example 101, 2-Benzyloxy-N-biphenyl-2-ylmethyl-N-pyridin-3-ylmethyl-benzamide], which IC50 [1] is on record?
Its IC50 is 10.8 µM.

What about the IC50 [2] of the same molecule?
The IC50 was > 50 µM.

Which IC50 [1] does the source give for `CCOc1ccc(C(=O)N(Cc2cccnc2)Cc2ccccc2-c2ccccc2)cc1` [Example 102, N-Biphenyl-2-ylmethyl-4-ethoxy-N-pyridin-3-ylmethyl-benzamide] here?
Its IC50 is 15.9 µM.

What about the IC50 [2] of the same molecule?
Its IC50 is > 50 µM.

With `COc1ccc(C(=O)N(Cc2ccccc2-c2ccccc2)c2ccc(OC)cc2)cc1` [Example 103, N-Biphenyl-2-ylmethyl-4-methoxy-N-(4-methoxy-phenyl)-benzamide] as the molecule, how does the IC50 [1] read?
The IC50 was 49 µM.

What about the IC50 [2] of the same molecule?
Its IC50 is > 50 µM.

Which IC50 [1] does the source give for `CCOc1ccccc1C(=O)N(Cc1ccccc1-c1ccccc1)c1ccc(OC)cc1` [Example 104, N-Biphenyl-2-ylmethyl-2-ethoxy-N-(4-methoxy-phenyl)-benzamide] here?
Its IC50 is 11.9 µM.

And the IC50 [2]?
The IC50 was > 50 µM.

What does the source list for `COc1ccc(N(Cc2ccccc2-c2ccccc2)C(=O)c2ccc3c(c2)OCO3)cc1` [Example 105, Benzo[1,3]dioxole-5-carboxylic acid biphenyl-2-ylmethyl-(4-methoxy-phenyl)-amide]?
IC50 [1]: 13.4 µM; IC50 [2]: > 50 µM
